What was measured:
[1] = tested on: Rattus norvegicus; test: Anticonvulsant activity in Sprague-Dawley rat assessed as inhibition of maximal electric shock-induced seizure at 30 mg/kg, po after 2 hrs; type: functional
[2] = tested on: Mus musculus; test: Anticonvulsant activity in CF1 albino mouse assessed as inhibition of maximal electric shock-induced seizure at 30 mg/kg, ip after 4 hrs; type: functional; conditions: route intraperitoneal
[3] = tested on: Mus musculus; test: Anticonvulsant activity in CF1 albino mouse assessed as inhibition of maximal electric shock-induced seizure at 100 mg/kg, ip after 4 hrs; type: functional; conditions: route intraperitoneal
[4] = tested on: Mus musculus; test: Anticonvulsant activity in CF1 albino mouse assessed as inhibition of maximal electric shock-induced seizure at 100 mg/kg, ip after 0.5 hrs; type: functional; conditions: route intraperitoneal
[5] = tested on: Rattus norvegicus; test: Anticonvulsant activity in Sprague-Dawley rat assessed as inhibition of maximal electric shock-induced seizure at 30 mg/kg, po after 0.25 hrs; type: functional
[6] = tested on: Rattus norvegicus; test: Anticonvulsant activity in Sprague-Dawley rat assessed as inhibition of maximal electric shock-induced seizure at 30 mg/kg, po after 1 hrs; type: functional
[7] = tested on: Rattus norvegicus; test: Anticonvulsant activity in Sprague-Dawley rat assessed as inhibition of maximal electric shock-induced seizure at 30 mg/kg, po after 4 hrs; type: functional
[8] = tested on: Mus musculus; test: Anticonvulsant activity in CF1 albino mouse assessed as inhibition of maximal electric shock-induced seizure at 30 mg/kg, ip after 0.5 hrs; type: functional; conditions: route intraperitoneal
[9] = tested on: Rattus norvegicus; test: Neurotoxicity in Sprague-Dawley rat at 500 mg/kg, po by positional sense and gait and stance test; type: toxicity, organism-based; design: dose 500 mg/kg, route oral; conditions: in vivo
[10] = tested on: Mus musculus; test: Anticonvulsant activity in CF1 albino mouse assessed as inhibition of maximal electric shock-induced seizure at 300 mg/kg, ip after 0.5 hrs; type: functional; conditions: route intraperitoneal
[11] = tested on: Rattus norvegicus; test: Anticonvulsant activity in Sprague-Dawley rat assessed as inhibition of maximal electric shock-induced seizure at 30 mg/kg, po after 0.5 hrs; type: functional
[12] = tested on: Mus musculus; test: Anticonvulsant activity in CF1 albino mouse assessed as inhibition of maximal electric shock-induced seizure at 300 mg/kg, ip after 4 hrs; type: functional; conditions: route intraperitoneal
[13] = tested on: Rattus norvegicus; test: Neurotoxicity in Sprague-Dawley rat at 30 mg/kg, po by positional sense and gait and stance test; type: toxicity, organism-based; design: dose 30 mg/kg, route oral; conditions: in vivo
[14] = tested on: Mus musculus; test: Neurotoxicity in CF1 albino mouse at 100 mg/kg, ip by rotarod test; type: toxicity, organism-based; design: dose 100 mg/kg, route intraperitoneal; conditions: in vivo
[15] = tested on: Rattus norvegicus; test: Neurotoxicity in Sprague-Dawley rat at 250 mg/kg, po by positional sense and gait and stance test; type: toxicity, organism-based; design: dose 250 mg/kg, route oral; conditions: in vivo
[16] = tested on: Mus musculus; test: Anticonvulsant activity in CF1 albino mouse assessed as inhibition of minimal clonic seizure at 100 mg/kg, ip after 2 hrs; type: functional; conditions: route intraperitoneal
[17] = tested on: Mus musculus; test: Anticonvulsant activity in CF1 albino mouse assessed as inhibition of minimal clonic seizure at 100 mg/kg, ip after 0.25 hrs; type: functional; conditions: route intraperitoneal
[18] = tested on: Mus musculus; test: Anticonvulsant activity in CF1 albino mouse assessed as inhibition of minimal clonic seizure at 100 mg/kg, ip after 4 hrs; type: functional; conditions: route intraperitoneal
[19] = tested on: Rattus norvegicus; test: Neurotoxicity in Sprague-Dawley rat at 500 mg/kg, po by positional sense and gait and stance test after 1 hrs; type: toxicity, organism-based; design: dose 500 mg/kg, route oral; conditions: in vivo
[20] = tested on: Mus musculus; test: Anticonvulsant activity in CF1 albino mouse assessed as inhibition of minimal clonic seizure at 100 mg/kg, ip after 0.5 hrs; type: functional; conditions: route intraperitoneal
[21] = tested on: Mus musculus; test: Anticonvulsant activity in CF1 albino mouse assessed as inhibition of minimal clonic seizure at 100 mg/kg, ip after 1 hrs; type: functional; conditions: route intraperitoneal
[22] = tested on: Mus musculus; test: Anticonvulsant activity in CF1 albino mouse assessed as inhibition of minimal clonic seizure at 30 mg/kg, ip after 0.5 hrs; type: functional; conditions: route intraperitoneal
[23] = tested on: Mus musculus; test: Anticonvulsant activity in CF1 albino mouse assessed as inhibition of minimal clonic seizure at 30 mg/kg, ip after 1 hrs; type: functional; conditions: route intraperitoneal
[24] = tested on: Mus musculus; test: Anticonvulsant activity in CF1 albino mouse assessed as inhibition of minimal clonic seizure at 30 mg/kg, ip after 0.25 hrs; type: functional; conditions: route intraperitoneal
[25] = tested on: Rattus norvegicus; test: Anticonvulsant activity against kindle motor-induced seizure in rat assessed as after discharge duration at 100 mg/kg, ip after 15 mins by hippocampal kindling screen test; type: functional, Hippocampus; conditions: route intraperitoneal
[26] = tested on: Mus musculus; test: Anticonvulsant activity in CF1 albino mouse assessed as inhibition of minimal clonic seizure at 80 mg/kg, ip after 2 hrs; type: functional; conditions: route intraperitoneal
[27] = tested on: Rattus norvegicus; test: Anticonvulsant activity against kindle motor-induced seizure in rat assessed as after discharge duration at 100 mg/kg, ip after 165 mins by hippocampal kindling screen test; type: functional, Hippocampus; conditions: route intraperitoneal
[28] = tested on: Mus musculus; test: Anticonvulsant activity in CF1 albino mouse assessed as inhibition of minimal clonic seizure at 30 mg/kg, ip after 2 hrs; type: functional; conditions: route intraperitoneal
[29] = tested on: Rattus norvegicus; test: Anticonvulsant activity against kindle motor-induced seizure in rat assessed as after discharge duration at 100 mg/kg, ip after 75 mins by hippocampal kindling screen test; type: functional, Hippocampus; conditions: route intraperitoneal
[30] = tested on: Mus musculus; test: Anticonvulsant activity in CF1 albino mouse assessed as inhibition of minimal clonic seizure at 80 mg/kg, ip after 0.5 hrs; type: functional; conditions: route intraperitoneal
[31] = tested on: Mus musculus; test: Anticonvulsant activity in CF1 albino mouse assessed as inhibition of minimal clonic seizure at 80 mg/kg, ip after 0.25 hrs; type: functional; conditions: route intraperitoneal
[32] = tested on: Rattus norvegicus; test: Anticonvulsant activity against kindle motor-induced seizure in rat assessed as after discharge duration at 100 mg/kg, ip after 135 mins by hippocampal kindling screen test; type: functional, Hippocampus; conditions: route intraperitoneal
[33] = tested on: Mus musculus; test: Neurotoxicity in CF1 albino mouse at 300 mg/kg, ip by rotarod test after 4 hrs; type: toxicity, organism-based; design: dose 300 mg/kg, route intraperitoneal; conditions: in vivo
[34] = tested on: Mus musculus; test: Anticonvulsant activity in CF1 albino mouse assessed as inhibition of minimal clonic seizure at 80 mg/kg, ip after 1 hrs; type: functional; conditions: route intraperitoneal
[35] = tested on: Rattus norvegicus; test: Anticonvulsant activity against kindle motor-induced seizure in rat assessed as after discharge duration at 100 mg/kg, ip after 45 mins by hippocampal kindling screen test; type: functional, Hippocampus; conditions: route intraperitoneal
[36] = tested on: Rattus norvegicus; test: Anticonvulsant activity against kindle motor-induced seizure in rat assessed as after discharge duration at 100 mg/kg, ip after 255 mins by hippocampal kindling screen test; type: functional, Hippocampus; conditions: route intraperitoneal
[37] = tested on: Rattus norvegicus; test: Anticonvulsant activity against kindle motor-induced seizure in rat assessed as after discharge duration at 100 mg/kg, ip after 105 mins by hippocampal kindling screen test; type: functional, Hippocampus; conditions: route intraperitoneal
[38] = tested on: Rattus norvegicus; test: Anticonvulsant activity against kindle motor-induced seizure in rat assessed as after discharge duration at 100 mg/kg, ip after 225 mins by hippocampal kindling screen test; type: functional, Hippocampus; conditions: route intraperitoneal
[39] = tested on: Rattus norvegicus; test: Anticonvulsant activity against kindle motor-induced seizure in rat assessed as after discharge duration at 100 mg/kg, ip after 195 mins by hippocampal kindling screen test; type: functional, Hippocampus; conditions: route intraperitoneal
[40] = tested on: Mus musculus; test: Anticonvulsant activity in CF1 albino mouse assessed as inhibition of minimal clonic seizure at 80 mg/kg, ip after 4 hrs; type: functional; conditions: route intraperitoneal

Row | SMILES | inhibition in vivo at 30 mg/kg [1] | inhibition in vivo at 30 mg/kg [2] | inhibition in vivo at 100 mg/kg [3] | inhibition in vivo at 100 mg/kg [4] | inhibition in vivo at 30 mg/kg [5] | inhibition in vivo at 30 mg/kg [6] | inhibition in vivo at 30 mg/kg [7] | inhibition in vivo at 30 mg/kg [8] | inhibition in vivo at 300 mg/kg [10] | inhibition in vivo at 30 mg/kg [11] | inhibition in vivo at 300 mg/kg [12] | Activity [14] | inhibition in vivo at 100 mg/kg [16] | inhibition in vivo at 100 mg/kg [17] | inhibition in vivo at 100 mg/kg [18] | inhibition in vivo at 100 mg/kg [20] | inhibition in vivo at 100 mg/kg [21] | inhibition in vivo at 30 mg/kg [22] | inhibition in vivo at 30 mg/kg [23] | inhibition in vivo at 30 mg/kg [24] | other results
1 | Nc1ccc(NC(=O)c2ccc(N)cc2)cc1 | 25% | 0% | 0% | 66% | 50% | 50% | 50% | 0% | 100% | 75% | 100% |  |  |  |  |  |  |  |  |  | Activity [9]: Non-toxic
2 | Nc1ccc(Oc2ccc(N)cc2)cc1 | 75% | 0% | 100% | 100% | 100% | 75% | 100% | 0% | 100% | 100% | 100% |  |  |  |  |  |  |  |  |  | Activity [13]: Non-toxic
3 | Nc1ccc(Nc2cccc(N)c2)cc1 | 50% | 0% | 100% | 100% | 0% | 75% | 50% | 0% | 100% | 50% | 100% | Non-toxic |  |  |  |  |  |  |  |  | Activity [15]: Non-toxic
4 | Nc1ccc(C(=O)c2ccc(N)cc2)cc1 | 100% | 0% | 100% | 100% | 50% | 75% | 75% | 0% | 100% | 100% | 100% |  | 0% | 100% | 0% | 100% | 100% | 0% | 0% | 0% | Activity [19]: Non-toxic
5 | Nc1ccc(Cc2ccc(N)cc2)cc1 [4,4'-METHYLENEDIANILINE] | 100% | 0% | 0% | 100% | 100% | 100% | 50% | 0% | 100% | 75% | 100% | Non-toxic |  |  |  |  |  |  |  |  | 
6 | Nc1ccc(Sc2ccc(N)cc2)cc1 [4,4'-THIODIANILINE] | 100% | 0% | 100% | 66% | 100% | 100% | 100% | 0% | 100% | 100% | 100% |  | 100% | 100% | 0% | 100% | 100% | 25% | 25% | 0% | Activity [25]: 19.14 s; inhibition in vivo at 80 mg/kg [26]: 75%; Activity [27]: 57.43 s; inhibition in vivo at 30 mg/kg [28]: 25%; Activity [29]: 24.86 s; inhibition in vivo at 80 mg/kg [30]: 100%; inhibition in vivo at 80 mg/kg [31]: 100%; Activity [32]: 34.71 s; Activity [33]: Non-toxic; inhibition in vivo at 80 mg/kg [34]: 100%; Activity [35]: 25.29 s; Activity [36]: 65.43 s; Activity [37]: 33.29 s; Activity [38]: 71.29 s; Activity [39]: 55.29 s; inhibition in vivo at 80 mg/kg [40]: 0%
